Assay results: US8450374B2, “Pan-antagonists for the androgen receptor and androgen receptor mutants associated with anti-androgen withdrawal” (priority 2009, dated 2013)
Changes are numbered by the printed parent chain.

What was measured:
prostate tissues = assay: Prostate apoptosis by TUNEL after short-term IP treatment (PLM6, bicalutamide); type: in vivo, Male C57BI/6 mice; details: 25 mg/kg/day IP, mean ± SE
Experimental: FIG. 6. […] Single 20× magnification fields from each of four lobes of mouse prostate glands were counted in each mouse. […] Data are expressed as means±SE. Statistics were determined using two-tailed, paired t-tests assuming data from each lobe was independent.
(§1) Prostates were removed from 3 day and 5 day treatment groups, sectioned and stained by H&E and TUNEL.
PLM6-induced glandular apoptosis was 19.9±2.8 cells per 20× field on day 3 (P=0.0064) that reached 24.63±3 cells per 20× field on day 5 (P=2.59×10^−4) (FIG. 7). Prostates from treated and control mice were isolated, fixed sectioned and stained TUNEL (BrdU). Sections were then evaluated by visible light microscopy and counting.

[1] = 25 mg/kg/day IP; PLM6 death at 5 days of treatment
Source text: as §1

AR wt [2] = molecular target: T1, AR wt (Homo sapiens, UniProt P10275); assay: Transcription assay (ARE-luciferase reporter) in CV-1 cells, wild-type AR; type: cell-based; parameters: expressed in transfected cells; host or cells: CV-1
T1 sequence (P10275 1-920): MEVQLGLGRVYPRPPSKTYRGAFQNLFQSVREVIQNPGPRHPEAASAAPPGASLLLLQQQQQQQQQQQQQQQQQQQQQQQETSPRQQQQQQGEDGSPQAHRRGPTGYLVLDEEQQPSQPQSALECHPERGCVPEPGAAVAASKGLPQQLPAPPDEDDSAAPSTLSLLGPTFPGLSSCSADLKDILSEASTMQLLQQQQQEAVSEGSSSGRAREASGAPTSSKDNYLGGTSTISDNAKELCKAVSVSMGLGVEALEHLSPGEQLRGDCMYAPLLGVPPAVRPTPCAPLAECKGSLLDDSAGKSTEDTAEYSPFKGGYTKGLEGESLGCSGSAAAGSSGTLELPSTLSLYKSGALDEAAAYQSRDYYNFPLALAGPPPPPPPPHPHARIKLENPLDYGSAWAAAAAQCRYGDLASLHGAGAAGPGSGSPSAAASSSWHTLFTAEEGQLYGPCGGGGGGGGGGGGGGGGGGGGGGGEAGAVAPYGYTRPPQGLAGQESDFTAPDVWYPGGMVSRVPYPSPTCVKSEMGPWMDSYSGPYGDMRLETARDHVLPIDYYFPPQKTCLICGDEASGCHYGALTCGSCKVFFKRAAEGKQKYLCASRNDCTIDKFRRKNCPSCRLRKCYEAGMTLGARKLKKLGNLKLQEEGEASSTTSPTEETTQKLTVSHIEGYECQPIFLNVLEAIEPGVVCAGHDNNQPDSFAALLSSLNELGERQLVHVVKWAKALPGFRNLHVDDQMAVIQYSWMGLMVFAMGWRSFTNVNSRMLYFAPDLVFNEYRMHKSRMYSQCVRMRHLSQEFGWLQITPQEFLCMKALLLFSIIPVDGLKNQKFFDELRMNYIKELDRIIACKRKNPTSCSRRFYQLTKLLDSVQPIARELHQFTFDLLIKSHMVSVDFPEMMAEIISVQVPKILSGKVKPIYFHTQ
Experimental: (§2) Twenty-four hours prior to transfection, CV-1 cells were seeded at a density of 45,000 cells per well in 24-well cell culture plates and grown in phenol red free Dulbecco's Modified Eagle Medium (DMEM) supplemented with 10% cosmic calf serum (COS). ARE-luciferase reporter and Renilla-Luc as the internal standard and a prokaryotic expression vector encoding the wild-type androgen receptor or mutant androgen receptor were transfected with Lipofectamine (Invitrogen) following manufacturer's protocol. Five hours after transfection, media was added containing the appropriate concentrations of ligands. The cells were allowed to incubate for 38 hours before harvesting by passive lysis buffer. Cell extracts were immediately assayed using the Dual Luciferase Assay (Promega) with a Perkin-Elmer Microbeta Luminometer. […] Dose-response data was analyzed by nonlinear regression analysis using GraphPad Prism.

AR T877A [3] = molecular target: T2, AR T877A (Homo sapiens, UniProt P10275, T878A); assay: Transcription assay (ARE-luciferase reporter) in CV-1 cells, AR T877A; type: cell-based; parameters: expressed in transfected cells; host or cells: CV-1
T2 sequence (P10275 1-920 T878A): T1 sequence (P10275 1-920) with T878A
Experimental: as §2

AR wt [4] = molecular target: T1, AR wt; assay: Competitive binding assay, [3H]DHT, transfected COS-7 cells, wild-type AR; parameters: expressed in transfected cells; host or cells: COS-7; details: 8 nM [3H]-DHT, read-out: Binding affinity (Ki), AR wt
Experimental: (§3) Twenty-four hours prior to transfection, COS-7 cells were seeded at a density of 70,000 cells per well in 24-well cell culture plates and grown in phenol red free Dulbecco's Modified Eagle Medium (DMEM) supplement with 10% cosmic calf serum (CCS). The cells were transfected with a prokaryotic expression vector encoding the wild-type androgen receptor or mutant androgen receptor using Lipofectamine (Invitrogen) following manufacturer's protocol. […] Cells were washed with PBS and harvested in 2% SDS, 10% glycerol, and 10 mM Tris, pH 6.8, and radioactivity determined by scintillation counting.

AR T877A [5] = molecular target: T2, AR T877A; assay: Competitive binding assay, [3H]DHT, transfected COS-7 cells, AR T877A; parameters: expressed in transfected cells; host or cells: COS-7; details: 14 nM [3H]-DHT, read-out: Binding affinity (Ki), AR T877A
Experimental: as §3

AR W741C = molecular target: T3, AR W741C (Homo sapiens, UniProt P10275, W742C); assay: Competitive binding assay, [3H]DHT, transfected COS-7 cells, AR W741C; parameters: expressed in transfected cells; host or cells: COS-7; details: 75 nM [3H]-DHT, read-out: Binding affinity (Ki), AR W741C
T3 sequence (P10275 1-920 W742C): T1 sequence (P10275 1-920) with W742C
Experimental: as §3

Question: Which “Glandular apoptosis, apoptotic cells” value (prostate tissues; day 3, TUNEL) does the source give for `CC(O)(CS(=O)(=O)c1ccc(F)cc1)C(=O)Nc1ccc(C#N)c(C(F)(F)F)c1` (stereo not shown) [Bicalutamide, bicalutamide] here?
Answer: Its value is 21.04±4.7 cells per 20× field.

Question: What about the “Glandular apoptosis, apoptotic cells” value (prostate tissues; day 5, TUNEL) of the same compound?
Answer: The value was 50.83±8.2 cells per 20× field.

Question: And the Deaths [1]?
Answer: Its Deaths is “two”.

Question: With `CN(C)CCCOc1ccccc1Cc1ccccc1S(=O)(=O)CC(C)(O)C(=O)Nc1ccc(C#N)c(C(F)(F)F)c1` (stereo not shown) [PAN12] as the compound, how does the IC50 (AR wt [2]) read?
Answer: The IC50 was 2.4 µM.

Question: What about the “Antagonist efficacy (RLU value at IC50), AR wt” value (AR wt [2]; in competition with 3 nM DHT, normalized to 10 nM DHT in hAR(wt)) of the same compound?
Answer: Its value is “(59%)”.

Question: And the IC50 (AR T877A [3])?
Answer: Its IC50 is 4.1 ± 0.7 µM.

Question: And the “Antagonist efficacy (RLU value at IC50), AR T877A” value (AR T877A [3]; in competition with 10 nM DHT)?
Answer: The value was “(53% ± 5.6%)”.

Question: And the Ki (AR wt [4])?
Answer: The Ki was 5.8 µM.

Question: What about the Ki (AR T877A [5]) of the same compound?
Answer: The Ki was 2.6 µM.

Question: What about the Ki (AR W741C) of the same compound?
Answer: Its Ki is 16 µM.
